Test results as given in patent publication US7829300B2 (priority 2002, dated 2010).

How the values were obtained:
[1] = test system: CHOK1-empty (mock) strain; format: cell-based
μ opioid receptor = target: T1, μ opioid receptor (Homo sapiens, UniProt P35372); format: cell-based
T1 construct: expressed in transfected cells; host or cells: CHO K1 (clone CHOK1-μ-K32)

P2Y2 receptor = assay: Cytoplasmic Ca2+ measurement with ATP alone in CHOK1-μ-K32 cells (endogenous P2Y2); format: cell-based
P2X7 = target: T2, P2X7 (Homo sapiens, UniProt Q99572); conditions: P2X7 versus P2Y2; cited from earlier work
T2 sequence (Q99572 1-595): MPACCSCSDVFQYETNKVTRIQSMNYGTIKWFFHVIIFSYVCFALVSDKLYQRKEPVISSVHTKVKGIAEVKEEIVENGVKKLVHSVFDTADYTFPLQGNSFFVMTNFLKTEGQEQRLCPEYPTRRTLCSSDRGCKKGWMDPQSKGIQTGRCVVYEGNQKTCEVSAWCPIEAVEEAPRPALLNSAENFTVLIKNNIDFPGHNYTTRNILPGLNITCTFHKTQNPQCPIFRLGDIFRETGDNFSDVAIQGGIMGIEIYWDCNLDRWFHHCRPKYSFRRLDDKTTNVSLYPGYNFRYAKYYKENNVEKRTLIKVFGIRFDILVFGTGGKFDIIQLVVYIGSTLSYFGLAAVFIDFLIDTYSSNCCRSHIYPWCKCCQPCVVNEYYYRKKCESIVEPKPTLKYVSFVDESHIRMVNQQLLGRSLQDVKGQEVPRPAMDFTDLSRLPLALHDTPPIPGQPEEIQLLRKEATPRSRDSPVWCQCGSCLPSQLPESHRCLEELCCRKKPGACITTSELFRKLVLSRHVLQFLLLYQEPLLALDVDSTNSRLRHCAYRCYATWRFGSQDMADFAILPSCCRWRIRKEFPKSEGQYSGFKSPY

5HT-1B receptor = target: T3, 5HT-1B receptor (Cricetulus griseus, UniProt P46636); assay: Cytoplasmic Ca2+ measurement (FLIPR, fluo-4) of the endogenously expressed 5HT-1B receptor in CHO K1 cells; format: cell-based; conditions: serotonin concentration 10 μM, 100 nM ATP, CHOK1-ORL-K66, mean of four measurements
T3 construct: the 5HT-1B receptor endogenously expressed by the CHO cells; endogenous in cells; host or cells: CHO K1 (CHOK1-ORL-K66)
Protocol: The cytoplasmic Ca^2+ concentration was measured in all the Examples using the FLIPR Calcium Plus Assay Kit and a corresponding FLIPR device from Molecular Devices, according to the manufacturer's instructions.
In brief, on the day preceding the experiment, the cells to be measured were plated out in a suitable 96-well cell culture plate, in a density of 25,000 cells per well, in a volume of 100 μl of the appropriate medium. Cell culture plates from Becton-Dickinson (order no. 66440) coated with poly-D-lysine were used for the test. On the day of the test, the cells were loaded with fluo-4. To that end, a vial of fluo-4 was dissolved in 23 μl of DMSO and 23 μl of Pluronic F 127. 42 μl of the solution were added to 21 ml of HBSS (+Probenecid and Hepes). 50 μl of this solution per well were added to the cells, the plates being incubated, for loading, for 30 minutes at 37° C., 5% CO2, 98% relative humidity. In order to remove excess loading solution, the plates were washed three times with 200 μl of HBSS in a washing device for 96-well plates. This was followed by a dispension step, in which in each case 100 μl of HBSS were added to the cells. […]
Compared with the negative control, the addition of the 5HT-1B agonist serotonin produced a marked signal intensification in the fluorescence measurement (FIG. 6).

T1 sequence (P35372 whole entry, species assumed): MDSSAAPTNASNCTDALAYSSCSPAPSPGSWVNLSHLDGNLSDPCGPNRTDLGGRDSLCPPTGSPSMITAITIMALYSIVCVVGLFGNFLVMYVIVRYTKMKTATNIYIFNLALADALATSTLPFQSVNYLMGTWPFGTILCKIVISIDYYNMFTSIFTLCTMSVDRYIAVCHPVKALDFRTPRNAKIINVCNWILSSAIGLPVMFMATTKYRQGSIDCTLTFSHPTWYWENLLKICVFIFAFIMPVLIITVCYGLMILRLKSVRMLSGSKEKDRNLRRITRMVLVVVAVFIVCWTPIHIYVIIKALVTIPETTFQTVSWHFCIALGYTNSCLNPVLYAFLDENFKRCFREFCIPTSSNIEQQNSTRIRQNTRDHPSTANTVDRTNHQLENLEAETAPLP
T3 sequence (P46636 whole entry): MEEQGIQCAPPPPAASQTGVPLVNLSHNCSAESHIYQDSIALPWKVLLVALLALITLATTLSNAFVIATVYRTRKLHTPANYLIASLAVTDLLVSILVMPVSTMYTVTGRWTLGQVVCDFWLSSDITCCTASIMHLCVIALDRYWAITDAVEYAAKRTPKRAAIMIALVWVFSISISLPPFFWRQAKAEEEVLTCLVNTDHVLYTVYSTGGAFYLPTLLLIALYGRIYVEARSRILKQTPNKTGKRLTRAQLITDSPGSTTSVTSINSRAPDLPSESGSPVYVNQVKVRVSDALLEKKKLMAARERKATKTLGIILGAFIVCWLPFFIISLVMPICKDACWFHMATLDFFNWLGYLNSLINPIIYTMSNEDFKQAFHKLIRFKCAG

## C[C@@H](NC(=O)[C@@H](N)Cc1ccc(O)cc1)C(=O)NCC(=O)N(C)[C@@H](Cc1ccccc1)C(=O)NCCO [DAMGO]
[1]
  effect of DAMGO on the ATP-triggered fluorescence signal: not affected
  fluorescence signal in non-transfected CHOK1 cells: none of the μ-receptor agonists used gave a fluorescence signal above the background
μ opioid receptor
  fluorescence intensity in dependence on concentration: conventional dose-response curve
  fluorescence signal: about 300 relative units

## Nc1ncnc2c1ncn2[C@@H]1O[C@H](COP(=O)(O)OP(=O)(O)OP(=O)(O)O)[C@@H](O)[C@H]1O [ATP]
P2Y2 receptor; 300 nM ATP, absence of DAMGO, CHOK1-μ-K32
  fluorescence signal: more than 1000 relative units
P2Y2 receptor; ATP on its own, CHO-μ-K32 cells
  ATP concentration at which a change in the fluorescence is detectable: ≥ 300 nM
P2X7
  ATP binding to P2X7 relative to P2Y2 (times more weakly): about 100 times

## NCCc1c[nH]c2ccc(O)cc12 [serotonin]
5HT-1B receptor
  fluorescence intensity on average: 1337 relative units
